Source: US6486326B2, “iso-CBI and iso-CI analogs of CC-1065 duocarmycins” (The Scripps Research Institute, priority 1997, dated 2002)
Where “and” joins values, the source holds several entries; their conditions need not be identical. Equal values may be shown once. Read-outs that look alike come from different tables or passages of the source.

How the values were obtained:
[1] = test system: L1210; experiment: In vitro cytotoxic activity; type: cell-based
[2] = Stability of neat sample to ambient light and storage; type: physicochemical; details: 48 h
Description: Exclusive spirocyclization with cyclopropane formation was observed, and no competitive O-alkylation leading to 36 was detected. However, prolonged exposure of neat 31 to ambient light at 25° C. […] Thus, the handling and storage of the iso-CBI based agents were conducted minimizing their exposure to light typically at subzero temperatures.

[3] = Solvolysis reactivity (UV, 50% CH3OH-aqueous buffer, pH 3); type: physicochemical; details: for k, solvolysis rate constant: pH 3, 25° C., CH3OH/aqueous buffer
Description: The solvolysis was followed spectrophotometrically by UV with the disappearance of the long-wavelength absorption band of the iso-CBI chromophore (397 nm), FIG. 3.
Solvolysis Reactivity: N-BOC-iso-CBI (31, 0.2 mg) was dissolved in CH3OH (1.5 mL) and mixed with pH 3 aqueous buffer (1.5 mL). The buffer contained 4:1:20 (v/v/v) 0.1 M citric acid, 0.2 M Na2HPO4, and H2O, respectively. The solvolysis solution was sealed and kept at 25° C. protected from light. The UV spectrum was measured at regular intervals every 1 h during the first 24 h, every 4 during the next 72 h, and every 12 h for an additional week. The decrease in the long wavelength absorption at 397 nm was monitored, FIG. 3. […] (FIG. 9).
Similarly, N—CO2Me-iso-CBI (33, 0.2 mg) was dissolved in CH3OH (1.5 mL) and mixed with pH 3 aqueous buffer (1.5 mL). The solvolysis solution was sealed and kept at 25° C. protected from light. The UV spectrum was measured at regular intervals every 1 h during the first 24 h, every 4 h during the next 72 h, and every 12 h for an additional week. The decrease in the long wavelength absorption at 395 nm was monitored, FIG. 3.
Similarly, 35 (0.2 mg) was dissolved in CH3OH (1.5 mL) and mixed with pH 3 aqueous buffer (1.5 mL). The solvolysis solution was sealed and kept at 25° C. protected from light. The UV spectrum was measured at regular intervals every 1 h during the first 12 h, every 2 h for the next 24 h, and every 4 h for an additional day. The decrease in the short wavelength absorption at 239 nm was monitored, FIG. 9.

[4] = test system: calf thymus DNA; experiment: Calf thymus DNA alkylation, quantitation of adenine N3 adduct; type: biochemical; details: 4° C.
Description: This was addressed through a study of the alkylation of calf thymus DNA. Optimized conditions for the alkylation were established for (−)-44 on an analytical scale (100 μg of agent). For this purpose, the long-wavelength UV absorption of the agent and the adduct provided a useful quantitative measure of the adenine adduct, unreacted starting material and any side products (solvolysis or rearrangement), Table 3. Analytical HPLC analysis was used to confirm the identity of the products through correlation of retention times and UV spectral data with authentic materials. The preparative DNA alkylation reaction and subsequent isolation of (+)-66 was carried out under conditions determined to provide complete consumption of the agent in the presence of a large excess of DNA Thus, extraction (EtOAc) of the aqueous buffer solution containing calf thymus DNA following alkylation (4° C., 72 h, 150 bp) afforded no recovered (−)-44, and only a small amount (<5%) of the rearranged product 65. Conducting the reaction at 4° C. in the presence of a large excess of DNA precluded competitive solvolysis. Thermal treatment of the alkylated DNA in aqueous 10 mM sodium phosphate buffer (100° C., 30 min, pH 7.0) followed by EtOAc extraction provided 66 in 90-95% conversion, ≧95% purity (by HPLC). Repeating this thermal treatment provided little or no additional adduct. No trace of a competing guanine adduct could be detected. This high conversion to a single adduct established that 44 participates exclusively in the adenine N3 alkylation reaction under the conditions examined.

[5] = test system: w794 DNA (SV40 DNA segment, 144 bp); experiment: DNA alkylation selectivity and efficiency, thermally-induced strand cleavage of w794 DNA; type: biochemical
Description: FIG. 5 illustrates thermally-induced strand cleavage of w794 DNA (SV40 DNA segment, 144 bp, nucleotide nos. 138-5238); DNA-agent incubation for 24 hours at 25° C., removal of unbound agent and 30 minutes of thermolysis (100° C.), followed by denaturing 8% PAGE and autoradiography, lane 1, control DNA; lanes 2-5, Sanger G, C, A, and T sequencing reactions; lanes 6-7 (−)-iso-CBI-TMI (1×10^−3 and 1×10^−4 M); lanes 8-9, (+)-CBI-TMI (1×10^−5 and 1×10^−4 M); lanes 10-11, (+)-duocarmycin SA (1×10^−5 and 1×10^−6).
FIG. 7 illustrates thermally-induced strand cleavage of w794 DNA (SV40 DNA segment, 144 bp, nucleotide nos. 138-5238); DNA-agent incubation for 24 h at 25° C., removal of unbound agent and 30 min of thermolysis (100° C.), followed by denaturing 8% PAGE and autoradiography; lane 1, control DNA; lanes 2-5, Sanger G, C, A, and T sequencing reactions; lanes 6-8 (+)-duocarmycin SA (1×10^−4 to 1×10^−6 M); lanes9-11, seco-iso-CI-TMI (1×10^−3 to 1×10^−5 M).
DNA Alkylation Selectivity and Efficiency: The DNA alkylation properties of the agents were examined within w794 and w836 duplex DNA for which comparative results are available for related agents. (Boger, D. L., et al., J. Am. Chem. Soc. 1994, 116, 11335; Boger, D. L., et al., J. Am. Chem. Soc. 1994, 116, 6461; and Boger, D. L., et al., J. Am. Chem. Soc. 1995, 117, 11647) The alkylation site identification and the assessment of the relative selectivity among the available sites were obtained by thermally-induced strand cleavage of the singly 5′ end-labeled duplex DNA after exposure to the agents. Following treatment of the end-labeled duplex DNA with a range of agent concentrations and temperatures in the dark, the unbound agent was removed by EtOH precipitation of the DNA Redissolution of the DNA in aqueous buffer, thermolysis (100° C., 30 min) to induce strand cleavage at the sites of DNA alkylation, denaturing high-resolution polyacrylamide gel electrophoresis (PAGE) adjacent to Sanger dideoxynucleotide sequencing standards, and autoradiography led to identification of the DNA cleavage and alkylation sites. The full details of this procedure have been disclosed elsewhere. (Boger, D. L., et al., Tetrahedron 1991, 47, 2661.)
DNA Alkylation Studies: Selectivity and Efficiency: Eppendorf tubes containing singly ^32p 5′-end-labeled double-stranded DNA (9 μL) (Boger, D. L., et al., Tetrahedron 1991, 47, 2661.) in TE buffer (10 mM Tris, 1 mM EDTA, pH 7.5) were treated with the agents in DMSO (1 μL, at the specified concentrations). The solutions were mixed by vortexing and brief centrifugation and subsequently incubated at 4° C., 25° C. or 37° C. for 24-72 h. […]

[6] = pH 3; comparison agents 55-61; cited from earlier work
[7] = cytotoxic activity, read-out: IC50
[8] = L1210, seco precursor, read-out: IC50, L1210

2-[((E)-3-(2-Methoxyphenyl)propenyl)carbonyl]-1,2,9,9a-tetrahydrocyclopropa[c]benzo[f]indol-1-one [compound 48]
cytotoxic potency, less potent than 44 and 46 [1]: 40-50 ×

CC(C)(C)OC(=O)N1CC2CC23C(=O)c2ccccc2C=C13 (racemic) [compound 31, 2-(tert-Butyloxycarbonyl)-1,2,9,9a-tetrahydrocyclopropa[c]benzo[f]indol-8-one]
cytotoxic potency of unnatural enantiomer relative to natural enantiomer (slightly more potent) [1]: 1-2 × | stability of neat sample exposed to ambient light ([2]; ambient light, 25° C.): carbonylcyclopropane rearrangement to form 36 | stability of neat sample protected from light ([2]; protected from light by foil): remained unchanged | solvolysis reactivity relative to N-BOC-CBI / corresponding CBI-based agents (more reactive, less stable) ([3]; pH 3): 5 × | k, solvolysis rate constant [3]: 6.98e-06 s⁻¹ and 6.97e-06 s⁻¹

COC(=O)N1CC2CC23C(=O)c2ccccc2C=C13 (racemic) [compound 33, 2-(Methoxycarbonyl)-1,2,9,9a-tetrahydrocyclopropa[c]benzo[f]indol-8-one]
k, solvolysis rate constant [3]: 6.4e-06 s⁻¹

COc1cc2cc(C(=O)N3CC4CC45C(=O)c4ccccc4C=C35)[nH]c2c(OC)c1OC (racemic) [compound 44, 2-[(5,6,7-Trimethoxyindol-2-yl)carbonyl]-1,2,9,9a-tetrahydrocyclopropa[c]benzo[f]indol-8-one]
adenine adduct 66 ([4]; 72 h, 75 base-pair equiv, analytical scale, HPLC/UV): 94% | adenine adduct 66 ([4]; 72 h, 150 base-pair equiv, analytical scale, HPLC/UV): 95% | adenine adduct 66 ([4]; 72 h, 150 base-pair equiv, preparative scale, isolation and weight): 92% | adenine adduct 66 ([4]; 120 h, 150 base-pair equiv, preparative scale, isolation and weight): 95% | cytotoxic potency, 44 compared with 46 [1]: equipotent | DNA alkylation sequence selectivity compared with (+)-duocarmycin SA [5]: same sequence selectivity

COc1ccc2[nH]c(C(=O)N3CC4CC45C(=O)c4ccccc4C=C35)cc2c1 (racemic) [compound 46, 2-[(5-Methoxyindol-2-yl)carbonyl]-1,2,9,9a-tetrahydrocyclopropa[c]benzo[f]indol-8-one]
cytotoxic potency, 44 compared with 46 [1]: equipotent

NC(=O)N1CCc2c1ccc1[nH]c(C(=O)N3CC4CC45C(=O)c4ccccc4C=C35)cc21 (racemic) [compound 52, 2-[(3-Carbamoyl-1,2-dihydro-3H-pyrrolo[3,2-e]indol-7-yl)carbonyl]-2,9,9a-tetrahydrocyclopropa[c]benzo[f]indol-8-one]
IC50 [1, 7]: 0.2 nM

NC(=O)N1CCc2c1ccc1[nH]c(C(=O)N3CCc4c3ccc3[nH]c(C(=O)N5CC6CC67C(=O)c6ccccc6C=C57)cc43)cc21 (racemic) [compound 54, 2-{[3-[N-(3-Carbamoyl-1,2-dihydro-3H-pyrrolo[3,2-e]indol-7-yl)carbonyl]-1,2-dihydro-3H-pyrrolo[3,2-e]indol-7-yl]carbonyl}-1,2,9,9a-tetrahydrocyclopropa[c]benzo[f]indol-1-one]
IC50 [1, 7]: 0.05 nM

COc1ccc2c(c1)C13CC1CN(C(=O)OC(C)(C)C)C3=CC2=O (racemic) [compound 59]
k, solvolysis rate constant [6]: 1.75e-06 s⁻¹

CC(C)(C)OC(=O)N1CC2CC23C1=CC(=O)c1ccc(C#N)cc13 (racemic) [compound 60]
k, solvolysis rate constant [6]: 9.9e-07 s⁻¹

CC(C)(C)OC(=O)N1CC2CC23C=CC(=O)C=C13 (racemic) [compound 61]
k, solvolysis rate constant [6]: 0.0198 s⁻¹

CC(C)(C)OC(=O)N1CC(COS(C)(=O)=O)c2c(O)cccc21 (stereo not shown) [compound 19]
IC50 [1, 8]: 10000 nM

COc1cc2cc(C(=O)N3CC(COS(C)(=O)=O)c4c(O)cccc43)[nH]c2c(OC)c1OC (stereo not shown) [compound 20]
IC50 [1, 8]: 6 nM | DNA alkylation efficiency, less efficient than (+)-duocarmycin SA ([5]; 24 h, 25° C., seco agent): 10 ×

O=C1C2=NCC3CC23C(=O)c2ccccc21 (stereo not shown) [compound 35, 9,9a-1H-Dihydrocyclopropa[c]benzo[f]indol-3,8-dione]
solvolysis reactivity relative to 31 or 33 (more reactive) ([3]; pH 3): 5-6 × | k, solvolysis rate constant [3]: 3.8e-05 s⁻¹

Cc1c[nH]c2c1C13CC1CN(C(=O)OC(C)(C)C)C3=CC2=O (stereo not shown) [compound 55]
k, solvolysis rate constant [6]: 5.26e-06 s⁻¹

COC(=O)C1(C)NC2=C(C1=O)C13CC1CN(C(=O)OC(C)(C)C)C3=CC2=O (stereo not shown) [compound 56]
k, solvolysis rate constant [6]: 1.75e-05 s⁻¹

COC(=O)c1cc2c([nH]1)C(=O)C=C1N(C(=O)OC(C)(C)C)CC3CC123 (stereo not shown) [compound 57]
k, solvolysis rate constant [6]: 1.08e-06 s⁻¹

CC(C)(C)OC(=O)N1CC2CC23C1=CC(=O)c1ccccc13 (stereo not shown) [compound 58]
k, solvolysis rate constant [6]: 1.45e-06 s⁻¹
